Results on 1 substance are retold here after paper PMC9820592, “Novel Chiral Ru(II) Complexes as Potential c-myc G-quadruplex DNA Stabilizers Inducing DNA Damage to Suppress Triple-Negative Breast Cancer Progression” (International Journal of Molecular Sciences, 2022).

In general, ΔTm refers to the change in melting temperature against a reference sample.

Series [1] relates to MDA-MB-231 cells. Kind of series: Comet assay. Format: cell-based, human. The following applies: 5 and 10 μM. On the procedure: DNA damage was detected by single-cell gel electrophoresis by using the Comet assay kit (Trevigen). MDA-MB-231 cells were added to a culture dish containing the medium. After treatment with different concentrations of the complexes (0, 5, and 10 μM) at 37 °C for 72 h, the cells were collected and washed with PBS three times. A solution of the cell suspension and melted low-melting-point agarose gel was mixed at a volume ratio of 1:7, and the equilateral sample was immediately transferred to a Comet Slide TM slide. The slides were washed twice with PBS, placed into an electrophoresis tank containing comet electrophoresis solution, and electrophoresed at 25 V for 30 min. After electrophoresis, the slides were washed twice with PBS. Finally, the cells were stained with EB and observed under a fluorescence microscope. Cells were randomly selected from each slide to take photos, and the tail moment was analyzed.

The test system of the next series is A549 cells. Kind of series: MTT assay, A549 cells. The following applies: 72 h, read-out: Inhibitory Effect (IC50/μM) A549. The format is cell-based, human. On the procedure: (§1) Liver cancer HepG2 cells, lung cancer A549 cells, breast cancer MCF-7 and MDA-MB-231 cells, human nasopharyngeal carcinoma CNE-1 cells, and human immortalized keratinocyte HaCaT cells were seeded in 96-well plates (5 × 10^3 cells per well) and cultured at 37 °C and 5% CO2 for 24 h. Cells were treated with different concentrations of the complexes (0, 1.5625, 3.125, 6.25, 12.5, 25, 50, and 100 µM) for 72 h. After adding 20 µL MTT (5 mg/mL) solution to each well, the cells were incubated for 4 h, and then 150 µL DMSO was added to each well. The optical density of each well was detected by a microplate reader at a wavelength of 570 nm. The cell survival rate (%) = A(experimental group)/A(control group) × 100%, and the IC50 value was analyzed and calculated based on the survival rate.
(Tetrazolium dyes change colour on reduction, which living cells bring about.)

Series [2] concerns c-myc G-quadruplex DNA. As to the kind of experiment: PCR-stop assay. The format is biochemical, human. The following applies: Taq polymerase. On the procedure:
In this study, c-myc G4 DNA and its reverse complementary sequence c-myc rev were heated to 95 °C for 5 min, allowed to cool to room temperature, and incubated at 4 °C overnight. The system was supplemented with dNTPs and Taq polymerase for PCR amplification; heated at 95 °C for 3 min, 94 °C for 30 s, and 58 °C for 30 s, with an extension at 72 °C for 30 s (30 cycles); and analyzed by 15% nondenatured polyacrylamide gel electrophoresis and silver staining.

Series [3] has as its system MDA-MB-231 cells. Kind of series: MTT assay, MDA-MB-231 cells. The format is cell-based, human. The following applies: 72 h, read-out: Inhibitory Effect (IC50/μM) MDA-MB-231. How it is done: as §1
The subject of series [4] is MDA-MB-231 cells. Kind of series: EdU proliferation assay. The format is cell-based, human. The following applies: control 50.2%. On the procedure: The inhibitory effect of the chiral DPPZ-based Ru(II) complexes (Λ/Δ−1−3) was assessed against different human tumor cancer cells, such as breast cancer MCF-7, MDA-MB-231, lung cancer A549, liver carcinoma HepG2, nasopharyngeal carcinoma CNE-1, and human normal keratinocyte HaCaT cells, by MTT assay. […] Moreover, the inhibition of MDA-MB-231 cell proliferation by Δ−3 was detected by using an EdU (5-ethynyl-2′-deoxyuridine) staining kit, and EdU was incorporated into newly synthesized DNA in the sample cells. The red fluorescent azide is small enough to diffuse freely through native tissues and DNA, and it covalently cross-links to the EdU in a “click” chemistry reaction.

Series [5] relates to subintestinal vessels (SIVs). As to the kind of experiment: Angiogenic assay in Tg (fli1: EGFP) zebrafish. The format is in vivo. The following applies: compared with control group. How it is done:
(§2) The zebrafish model of transplanted breast cancer was constructed in accordance with the methods in the literature. Juvenile 48 h old breast cancer model zebrafish were placed in 48-well plates (n = 10), and 0.2 mL aquaculture water without or with Δ−3 (0, 2.5, 5, and 10 μM) was added for culture. Images were captured every 24 h using a fluorescence microscope to study the inhibitory effect of Δ−3 on zebrafish with breast cancer. In addition, the mean number of sprout and mean length of sprout in subintestinal vessels (SIVs) were analyzed by ImageProPlus software. The ethical protocols for the in vivo research on zebrafish complied with relevant laws.

Series [6] concerns MDA-MB-231 cells. Kind of series: ICP detection of Ru content in cells. The format is cell-based, human. The following applies: 24 h, control 0.4. On the procedure: MDA-MB-231 cells were seeded in 10 cm cell culture dishes. After cell adherence, the cells were treated with the drug (0, 2.5, 5, and 10 μM) for 24 h. After 24 h, the cells were washed with PBS three times and collected by trypsin. The number of collected cells was counted by a cell counter. Then, the cells were digested in 1 mL HNO3 solution by microwave digestion at 120 °C for 3 min, and 1 mL of this solution was transferred to a 5 mL volumetric flask, diluted with distilled water to volume, and mixed. The Ru content of these solutions was analyzed by an ICP optical emission spectrometer (NCS, Plasma 2000). All measurements were repeated three times.

The subject of series [7] is c-myc G-quadruplex DNA. Kind of series: FRET melting assay. The format is binding, human. The following applies: free DNA Tm 59.5 °C. On the procedure: Carboxy fluorescein (FAM) and 6-carboxytetramethyl rhodamine (TAMRA) double fluorescent-labeled c-myc G4 DNA (5′−FAM-TGAGGGTGGGAGGGGTAA-TAMRA−3′) were heated to 95 °C in Tris-HCl-KCl buffer (containing 10 mM Tris-HCl, 100 mM KCl, pH 7.4) for 5 min and slowly cooled to room temperature. To ds26, double-stranded DNA ([…]) is a competitive binder, research Λ/Δ−3 with c-myc G4 selectivity binding ability of DNA. A Bio-Radiq5 real-time PCR detection system was used to measure the fluorescence melting curve. Approximately 1 μM (5 μL) FPU22T was mixed with a series of 5 μL compound solutions of different concentrations, and 15 μLTris-HCl-KCl buffer was added to the PCR 8 tube to obtain a total volume of 25 μL. A real-time fluorescence quantitative PCR instrument was used, and incubation was performed at 30 °C for 30 min. The program temperature range was set to 30–95 °C at a temperature interval of 1 °C, and recording was performed after balancing for 30 s to detect the fluorescence value of FAM. The conditions of the reaction system were similar to those of the FRET melting point test except that different concentrations of ds26 were added.

The subject of series [8] is MDA-MB-231 cells. Kind of series: Zebrafish xenograft breast cancer model. The following applies: 2.5, 5, and 10 μM, 72 h. The format is in vivo. How it is done: as §2

Turning to Δ-[Ru(bpy)2(3-NBEDPPZ)](ClO4)2 [Δ−3], in the series with MDA-MB-231 cells [1], the “DNA damage (comet appearance)” value is “cometary shapes appeared”. The IC50 in the series with A549 cells was found to be 24.7 ± 0.28 µM; in the series with MDA-MB-231 cells [3], 25.5 µM. Besides, the “minimum concentration necessary for effective inhibition (PCR products)” value in the series with c-myc G-quadruplex DNA [2] turned out to be 2.5 µM. The “proliferation rate (EdU)” value in the series on MDA-MB-231 cells [4] (10 μM) is listed as 34.9%; with MDA-MB-231 cells [4] (20 μM), 22.0%; with MDA-MB-231 cells [4] (40 μM) it was 5.1%. In addition, the “number and length of SIVs” value in series [5] is reported as “significantly decreased”. The “Ru content in cells” value with MDA-MB-231 cells [6] (2.5 μM) came to 0.52 ng/mL per 1 × 10^4 cells; in the series on MDA-MB-231 cells [6] (5 μM), 1.82 ng/mL per 1 × 10^4 cells; in the series with MDA-MB-231 cells [6] (10 μM), 2.91 ng/mL per 1 × 10^4 cells. In addition, the results for the shift in melting temperature (ΔTm) entry in the series on c-myc G-quadruplex DNA [7] (complex 0.5 μM) and with c-myc G-quadruplex DNA [7] (complex 1.0 μM) were “approximately 3.5 °C” and around 7.2 °C, respectively. In addition, the “number of MDA-MB-231 cells in zebrafish” value in the series on MDA-MB-231 cells [8] is reported as “significantly lower than that of the control”.
